Consider seven molecules from patent US4595688A, “Hexahydropyrrolo[2,1-a]isoquinoline derivatives and antidepressant use thereof” (priority 1984, dated 1986).

Molecules are shown by their SMILES. Read-outs that look alike come from different tables or passages of the source.

The subject of this assay is depressant effects of tetrabenazine (TBZ). Briefly: tetrabenazine (TBZ) antagonism assay in mice: exploratory activity (EA) and reversal of ptosis (Pt). It counts as in vivo. Particulars: for ED50: Mus musculus, ip. How it is done:
The utility of the novel compounds of this patent is based on a standard test for antidepressant agents involving antagonism of the depressant effects of tetrabenazine (TBZ). This is the "classical" tetrabenazine antagonism assay described in U.S. Pat. No. 3,787,577. In this test, mice are injected with a test compound 30 minutes prior to the injection of 32 mg/kg i.p. of TBZ, a drug which decreases normal exploratory activity and induces ptosis. After 30 minutes, the mice are tested for two parameters: the presence of normal exploratory activity (EA) and reversal of ptosis (Pt). A control group of mice is given only 32 mg/kg i.p. of TBZ. The biological activity of the novel compounds of this invention may be understood by some representative, nonlimiting examples, presented in Tables I and II.
Tables I lists the compounds tested by a compound number, structural formula, HX or acid addition salt form in which the compound was tested, test data, and internal code number (McN No.). Table II names the various Table I compounds.
*ED50 given in mg/kg for each parameter (except for percent
inhibition at a certain dose in mg/kg, given for four examples: XLIV, XLV

[1] abbreviates: mice, i.p., compound 30 minutes prior to 32 mg/kg i.p. TBZ, normal exploratory activity, read-out: TBZ ED50, EA (exploratory activity).
Setting [2] is: mice, i.p., compound 30 minutes prior to 32 mg/kg i.p. TBZ, reversal of ptosis, read-out: TBZ ED50, Pt (reversal of ptosis).
Setting [3] is: mice, i.p., compound 30 minutes prior to 32 mg/kg i.p. TBZ, normal exploratory activity.
[4] abbreviates: mice, i.p., compound 30 minutes prior to 32 mg/kg i.p. TBZ, reversal of ptosis.

As a reminder, the ED50 is the dose at which the effect has come halfway, by size or by number of responders. As for `Oc1ccc([C@@H]2CN3CCC[C@H]3c3ccccc32)cc1O` (relative stereo) [XXXVII, 4-(1,2,3,5,6,10bα-Hexahydropyrrolo[2,1-a]isoquinolin-6a-yl)-1,2-benzenediol], the ED50 by setting is: under setting [1], 30 mg/kg; under setting [2], 1.8 mg/kg.
For `O=[N+]([O-])c1ccc([C@@H]2CN3CCC[C@@H]3c3ccccc32)cc1` (relative stereo) [XXXVIII, 1,2,3,5,6,10bβ-hexahydro-6α-(4-nitrophenyl)-pyrrolo[2,1-a]isoquinoline] the same measures were 0.51 mg/kg and 0.15 mg/kg.
For `c1ccc([C@@H]2CN3CCC[C@@H]3c3ccccc32)cc1` (relative stereo) [Xb, [6α,10bβ]-1,2,3,5,6,10b-Hexahydro-6-phenyl-pyrrolo[2,1-a]isoquinoline] the same measures were 0.34 mg/kg and 0.07 mg/kg.
In the case of `OC1(c2ccccc2)CN2CCCC2c2ccccc21` (single isomer, unassigned) [XLIII, 1,2,3,5,6,10b-Hexahydro-6-phenylpyrrolo[2,1-a]isoquinolin-6-ol], the “TBZ ED50, EA (exploratory activity)” value under setting [3] is 33 mg/kg. Moreover, the “TBZ ED50, Pt (reversal of ptosis)” value under setting [4] turned out to be 5.0 mg/kg.
Take `OC1(c2ccccc2)CN2CCCC2c2ccccc21` (single isomer, unassigned) [XXXIV, 1,2,3,5,6,10b-Hexahydro-6-phenylpyrrolo[2,1-a]isoquinolin-6-ol]: the “TBZ ED50, EA (exploratory activity)” value under setting [3] was found to be 8.4 mg/kg. Further, under setting [4], the “TBZ ED50, Pt (reversal of ptosis)” value stood at 1.6 mg/kg.
Regarding `FC1(c2ccccc2)CN2CCCC2c2ccccc21` (stereo not drawn) [LIII, 6α-Fluoro-1,2,3,5,6,10bα-hexahydro-6-phenylpyrrolo[2,1-a]isoquinoline], the median effective dose (ED50) (read-out: TBZ ED50, Pt (reversal of ptosis)) was 1.2 mg/kg. In addition, the “percent inhibition at a certain dose, EA (exploratory activity)” value (mice, i.p., @ 40 mg/kg, TBZ 32 mg/kg i.p.) is recorded as 60%.
In the case of `Oc1ccc(C2CN3CCCC3c3ccccc32)cc1` (stereo not drawn) [XXXVI, 4-(1,2,3,5,6,10bα-Hexahydropyrrolo[2,1-a]isoquinolin-6α-yl)phenol], under setting [3], the “TBZ ED50, EA (exploratory activity)” value is recorded as “ca. 14 mg/kg”. The “TBZ ED50, Pt (reversal of ptosis)” value under setting [4] was determined as 10 mg/kg.
